Data on one molecule can be found in patent EP2181589A1, “Neurotoxic sterol glycosides” (Shaw, Christopher Ariel, priority 2008, dated 2010).

Data set [1] relates to CD-1 mice. In words: Rotarod test. The following applies: SG-fed vs control, duration of the study. The class given is in vivo. The procedure:
(§1) Five-month old male CD-1 mice (30.1-35.7 g, 7.5 cm - 8.8 cm) were purchased from Charles River (Wilmington, MA). Adult mice were chosen to mimic the mean age of onset of ALS-PDC (Kurland, 1988; Kurland et al., 1994). Thirty mice for the SG study were randomly divided into 2 groups (14 control and 16 experimental animals). All animals were housed singly in a virus-free barrier facility in a room maintained at 22°C under a 12 hour light/dark cycle. The mice were provided ad libitum access to food and water.
The synthetic SG was mixed with finely ground Purina Chow mouse pellets (Mouse Diet™, Purina) to create the experimental pellets with a SG content of 1000 µg per pellet. Dry materials were blended with a sterile silicon spatula. […] SG feeding was conducted daily for 15 weeks and mice were behaviorally monitored until sacrifice at 35 weeks (time point 1) or 52 weeks (time point 2).
Rotorod: The rotarod was used to evaluate motor function, coordination and balance (Jones and Roberts, 1968; Sango et al., 1995; Gerlai et al., 1996a; Sango et al., 1996; Chapillon et al., 1998; Carter et al., 1999; Crawley, 1999; Gerlai and Roder, 1996). The time that a mouse could remain walking on a horizontal (Norflus et al., 1998), rotating axle (3.6 cm diameter; 16 rpm) elevated above an area of padding without falling, clenching on, or jumping off the axle was measured (Crawley, 1999), see FIGURE 15. […]

The test system of data set [2] is CD-1 mice. In words: Gait analysis (Digigait). The following applies: SG-fed vs control. The class given is in vivo. The procedure: as §1
(§2) The synthetic SG was mixed with finely ground Purina Chow mouse pellets (Mouse Diet™, Purina) to create the experimental pellets with a SG content of 1000 µg per pellet. Dry materials were blended with a sterile silicon spatula. For every 5 g of standard feed, 2.5 mL of doubly-distilled water (dd)H2O was added and the dough was kneaded and round up into pellets. A single sterol glucoside containing pellet was placed in the feeding tray each morning before the addition of regular mouse chow (ad libitum). All experimental pellets were entirely consumed by the mice each day. Control mice were fed standard mouse chow pellets of identical weight with no additives. SG feeding was conducted daily for 15 weeks and mice were behaviorally monitored until sacrifice at 35 weeks (time point 1) or 52 weeks (time point 2).
Gait analysis: In order to examine spatial and temporal indices of front and hind limb stepping patterns during forward locomotion, mice were required to run on a colorless (PVC and polycarbonate), straight, level, walled motorized belt (Digigait™, treadmill motor: DC, HP; torque 45 1b-in, Mouse Specifics, Inc., Boston, MA, USA) set at 30 rpm with a no-flicker light source (90-250 VAC; 25 kHZ, Mouse Specifics, Inc., Boston, MA, USA) and camera mounted ventrally (relative to the animal) to facilitate continuous ventral plane videography (up to 150 frames per second) of activity. Gait indices were analyzed with the complementary digital imaging software (Digigait™, Mouse Specifics, Inc., Boston, MA, USA) as per manufacturer's instructions. Briefly, the software converts "paw prints" into a digital signal and generates a temporal record of paw placement and breaks down the digital file into three main parameters: stride duration, swing duration, and stance duration. The stance duration is the period during which the paw of a limb is in contact with the belt surface. The software further subdivides the stance duration into two components: braking duration (the increase in paw contact area over a discrete time interval) and propulsion duration (the decrease in paw contact area over a discrete time interval). The swing duration is the period of time that a paw is not in contact with the belt surface. In addition to these factors, over a dozen additional characteristics, including stance factor, step-sequence pattern, propulsion, and cadence are generated to provide a spreadsheet format report of twenty-five gait indices.

Data set [3] deals with Activating transcription factor-3. As to the kind of experiment: Activating transcription factor-3 immunofluorescence. The class given is in vivo, CD-1 mice. The following applies: for Anti-ATF-3: SG-fed vs control. The procedure:
as §2
Tissue-mounted slides were processed for fluorescence microscopy as follows: Sections were rinsed in coplin jars for 45 minutes at room temperature (RT) in three changes of PBS. Sections were then incubated at RT for 30 minutes in a blocking permeabilization solution made of 5% normal goat serum (NGS), 5% normal rabbit serum (NRS) or 5% BlokHen II (Aves Labs, Inc., Tigard, OR), 0.05% Triton X-100 and PBS. Subsequently, the blocking solution was tipped off and the slides were rinsed in PBS for 2 minutes. […]

“Also recorded” adds a separate entry of the source. Marks after values point to notes of the source that are not given here.

In the case of `CCC(C=CC(C)C1CCC2C3CC=C4CC(OC5OC(CO)C(O)C(O)C5O)CCC4(C)C3CCC12C)C(C)C` (stereo not drawn) [SG], the Rotarod performance result with CD-1 mice [1] was “trend of diminished performance on the rotarod but numbers did not reach statistical significance; also recorded: decrease in the time without fall”. In the data set on CD-1 mice [2] (time-point 1, 35 wk), the Forelimb braking result was “Forelimb braking (ns)”, the Forelimb propulsion result is recorded as “Forelimb propulsion (ns)”, the Forelimb stance width result was “Forelimb stance width (ns)” and the Forelimb stride length result is “Forelimb stride length (ns)”. In the data set with CD-1 mice [2] (time-point 1, 35 wk), the Hind limb braking entry was “Hind limb braking (ns)”, the Hind limb propulsion entry is “Hind limb propulsion (ns)”, the “Hind limb stance width” value is reported as “Hind limb stance width (ns)” and the “Hind limb stride frequency” value is listed as “Hind limb stride frequency (ns)”. In addition, the “Hind limb stride length” value with CD-1 mice [2] (time-point 1, 35 wk) is “Hind limb stride length (ns)”. Further, in the data set with CD-1 mice [2] (time-point 2, 52 wk), the Forelimb braking result is reported as “Forelimb braking* (*p<0.05)”, the Forelimb propulsion result was “Forelimb propulsion* (*p<0.05)”, the Hind limb braking entry is “Hind limb braking* (*p<0.05)” and the Hind limb propulsion result was “Hind limb propulsion* (*p<0.05)”. Also, in the data set on CD-1 mice [2] (time-point 2, 52 wk), the “Hind limb stride frequency” value was “Hind limb stride frequency* (*p<0.05)”. The Anti-ATF-3 immunoreactive cells result in data set [3] (SG-fed group over time, 35 to 52 wk) was “Anti-ATF-3 immunoreactive cells (SG-fed group over time): -48%***”. In data set [3] (time-point 1, 35 wk), the Anti-ATF-3 entry is “Anti-ATF-3:+242%***”. Moreover, in data set [3] (time-point 2, 52 wk), the Anti-ATF-3 entry is recorded as “Anti-ATF-3:+101%**”.
